According to patent publication EP0326134A1, “4-Amino-2,3-disubstituted-6,7-dihydro-5H-1-pyridine derivatives, process for their preparation and medicaments containing them” (NAUCHNO-ISSLEDOVATELSKY INSTITUT TEKHNOLOGII I BEZOPASNOSTI …, priority 1988, dated 1989):
Where a name gives a salt, the structure may show the parent alone. Read-outs that look alike come from different tables or passages of the source.

How the values were obtained:
[1] = Acute toxicity, single intraperitoneal injection, probit analysis (LD50); assay type: in vivo, Mäusen; conditions: mice, i.p.
Source text: Ihre akute Toxizität wurde an Mäusen (einmalige intraperitoneale Injektion) nach der Methode der Probit-Analyse nach Zichtfield, Wilcoxon, t949 untersucht. In Tabelle 2 sind die Parameter der akuten Toxizität (LDso) angegeben, die eine mäßige Toxizität der erfindungsgemäßen Verbindungen belegen.

[2] = Side effects and CNS/behaviour: tremor (TD50), sedative and m-cholinomimetic effects; assay type: in vivo
Source text: Von Interesse ist der Einfluß der erfindungsgemäßen Verbindungen auf das ZNS und das Verhalten der Tiere.

[3] = tested on: durch Skopolamin hervorgerufene Amnesie; assay: Dark avoidance assay (passive avoidance), scopolamine-induced amnesia; assay type: in vivo, Mäusen; conditions: mice, compound s.c. 5 min before learning, Skopolamin i.p. 30 min before
[4] = tested on: Nerven-Muskel-Präparat von Mäusen (n.peroneus-m.extensor digitorum longus); assay: Neuromuscular transmission in isolated nerve-muscle preparation (EPP, minEPP); conditions: for Stimulierung der Nerven-Muskelübertragung, in % der Amplitude: EPP: EPP = Endplattenpotential
Procedure, shortened: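 Mouse peroneal nerve–extensor digitorum longus preparation, isolated and perfused with O2/CO2-gassed Lilly solution. EPPs and spontaneous minEPPs were recorded by magnetograph, then analysed by computer for frequency, amplitude and duration.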

[5] = tested on: isolierten Präparaten des rechten Vorhofs von Kaninchen; assay: Antiarrhythmic effect on isolated right atrium preparations (microelectrodes: AP duration, refractory period R, e/R); conditions: isolated right atrium of rabbit, microelectrodes
Source text: (§1) Die antiarrhythmische Wirkung der erfindungsgemäßen Verbindungen wurde in zwei Versuchsserien untersucht, und zwar an isolierten Präparaten des rechten Vorhofs von Kaninchen und mit Hilfe des Calciumchlorid-Arrhythmie-Modells an Ratten. In den Versuchen an den isolierten Präparaten des rechten Vorhofs wurden mit Hilfe von Mikroelektroden die Dauer des AP sowie der Refraktärzeit (R) und die maximale Hemmung (e) und der Parameter (e/R) untersucht, durch den die Anfälligkeit des Myokards gegenüber der Entstehung von Arrhythmien gekennzeichnet wird. In den Versuchen an Ratten wurden diesen Calciumchlorid in einer Dosierung von 250 mg/kg injiziert. Registriert wurden das Vorliegen von Kammerflimmern und die Lebensdauer der Tiere. Sämtliche erfindungsgemäßen Verbindungen üben eine mäßige antiarrhythmische Wirkung aus. Sie steigern die Refraktärzeit des Muskels und des AP um 35 bis 145 % und verringern gleichzeitig die Anfälligkeit des Myokards, ausgedrückt durch den Parameter e/R um 10 bis 80 % (s. Tabelle 4). In bezug auf diese Wirkung waren die Salze der bicyclischen Basen wirksamer als Amyridin. Bezüglich des Vermögens, die Tiere vor Kammerflimmern und vor dem Tod nach Verabreichung von 250 mg/kg Calciumchlorid zu schützen, waren diese Verbindungen ebenfalls am stärksten wirksam. Bei Verwendung des Calciumchlorid-Arrhythmie-Modells waren viele erfindungsgemäßen Verbindungen stärker wirksam als das klassische Antiarrhythmikum Chinidin (s. M.D. Ma s kovskij, Lekarstvennye sredstva, Bd. 1, S. 401, Moskau, Medicina, 1984).

[6] = tested on: Calciumchlorid-Arrhythmie-Modells; assay: Calcium chloride arrhythmia model (250 mg/kg): ventricular fibrillation, survival; assay type: in vivo, Ratten; conditions: rats, calcium chloride 250 mg/kg
Source text: as §1

[7] = tested on: Zahl der Krämpfe; assay: Writhing test (intraperitoneal acetic acid); assay type: in vivo, Mäusen; conditions: male mice
Source text: Die analgetische Wirkung der erfindungsgemäßen Verbindungen wurde an männlichen Mäusen anhand des "Krampf"-Tests (Writhing-Tests) unter intraperitonealer Injizierung von Essigsäure und des Hot-plate-Tests untersucht. Im ersten Falle wurde die analgetische Wirkung der Verbindungen anhand der prozentualen Verringerung der Zahl der Krämpfe ermittelt. Beim zweiten Test wurde die Schwelle der Schmerzempfindlichkeit (Ablecken der Pfoten) bestimmt. Die stärkste analgetische Wirkung der erfindungsgemäßen Verbindungen zeigte sich beim "Krampf"-Test. Dabei übertrafen die Salze der bicyclischen Basen Amyridin, aber nicht alle erfindungsgemäßen Verbindungen waren schwächer als Morphin (s. Tabelle 4).

[8] = tested on: Orientierungsaktivität; assay: Influence on orientation activity; assay type: in vivo, Mäusen; conditions: mice
Source text: Von Interesse ist der Einfluß der erfindungsgemäßen Verbindungen auf das ZNS und das Verhalten der Tiere. Alle Verbindungen zeigen eine Kombination von stimulierenden und sedativen Eigenschaften und bei höheren Dosen auch eine m-cholinomimetische Wirkung, wobei Tremor, Speichelfluß und Diarrhoe ausgelöst werden.

[9] = tested on: Wirkung von Hexenal; assay: Influence on the effect of Hexenal; assay type: in vivo, Mäusen; conditions: mice
[10] = biological target: T1, Acetylcholinesterase menschlicher Erythrozyten (Homo sapiens, UniProt P22303); assay: Acetylcholinesterase inhibition, spectrophotometric; assay type: biochemical; conditions: Acetylcholinesteraseinhibierung bei menschlichen Erythrozyten IK, (Mol), human erythrocyte enzyme
T1 construct: Acetylcholin-esteraseinhi-bierung bei menschlichen Erythrozyten; from tissue; host or cells: human erythrocytes
Source text: Untersucht wurden die Wirkmechanismen der erfindungsgemäßen Verbindungen: • 1. Die Wirkung auf Acetylcholinesterase menschlicher Erythrozyten auf spektrofotometrischem Wege. • 2.

[11] = tested on: α2-Adrenorezeptoren; assay: Radioligand displacement of 3H-clonidine in cerebral cortex; assay type: binding, Kaninchens; conditions: for α2-adrenoblockierende Wirkung: in words, from radioligand studies
Source text: (§2) Dies beweisen spezielle Radioligandenuntersuchungen an einzelnen erfindungsgemäßen Verbindungen (s. Tabelle 6).

[12] = biological target: T2, M2-Cholinrezeptoren (Oryctolagus cuniculus, UniProt G1TBX1); assay: Radioligand displacement of 3H-Chinuklidin in heart; assay type: binding, Kaninchen; conditions: read-out: Verdrängung des 3H-Chinuklidins im Kaninchenherzen (M2-Cholinrezeptoren); for inhibition at 10 µM: Konzentration 1.10^-5 Mol; for inhibition at 1 µM: Konzentration 1.10^-6 Mol
T2 construct: im Kaninchen-herzen (M2-Cholinre-zeptoren); from tissue; host or cells: rabbit heart
T2 sequence (G1TBX1 1-520): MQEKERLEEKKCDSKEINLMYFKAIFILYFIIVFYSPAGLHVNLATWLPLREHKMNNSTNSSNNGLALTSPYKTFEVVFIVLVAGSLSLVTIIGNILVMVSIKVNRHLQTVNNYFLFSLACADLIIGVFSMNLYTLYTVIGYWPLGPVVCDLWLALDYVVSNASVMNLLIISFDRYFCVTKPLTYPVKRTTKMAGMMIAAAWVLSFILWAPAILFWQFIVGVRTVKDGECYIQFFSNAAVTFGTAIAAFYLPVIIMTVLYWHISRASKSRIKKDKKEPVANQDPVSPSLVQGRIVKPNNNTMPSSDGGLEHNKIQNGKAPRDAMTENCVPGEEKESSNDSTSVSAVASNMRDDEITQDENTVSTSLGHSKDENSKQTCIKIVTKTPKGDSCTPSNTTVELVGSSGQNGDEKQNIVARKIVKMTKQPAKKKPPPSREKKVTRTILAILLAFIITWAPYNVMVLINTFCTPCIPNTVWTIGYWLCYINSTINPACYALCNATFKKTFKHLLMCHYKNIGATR
Source text: as §2

[13] = tested on: M-cholinrezeptoren; assay: Radioligand displacement of 3H-Propyl-2-aminobenzylat in brain; assay type: binding, Kaninchens
Source text: as §2

[14] = tested on: Uterus der Ratte; assay: Contractile activity of smooth muscle: rat uterus; conditions: n = 9; for activity at 10 µM / activity at 100 µM: Rattus norvegicus; for activity at 100 µM: Konzentration 1.10^-4 Mol
Source text: (§3) In Versuchen an glattmpskulären Organen (Uterus, Samenleiter der Ratte und Krummdarm des Meerschweinchens) wurden die Wirkung der erfindungsgemäßen Verbindungen auf die kontraktile Aktivität der glatten Muskeln und ihre Reaktionen auf den Einfluß von Acetylcholin, Serotonin, Adrenalin und KCI als Agonisten untersucht. Mit Hilfe eines Schreibers wurden die Amplitude und die Dauer der Kontraktion der glatten Muskeln unter Verwendung eines Geräts vom Typ Mechanstron-untersucht.

[15] = tested on: Samenleiter der Ratte; assay: Contractile activity of smooth muscle: rat vas deferens; conditions: n = 9
Source text: as §3

[16] = tested on: K -Durchlässigkeit der Membrane des Ranvier-Schnürringes; assay: K+ permeability of the node of Ranvier membrane, voltage clamp; set-up: species or system Frosches; conditions: concentration giving 50 % block of ion permeability
Source text: (§4) Untersucht wurden die Wirkmechanismen der erfindungsgemäßen Verbindungen: • 1. Die Wirkung auf Acetylcholinesterase menschlicher Erythrozyten auf spektrofotometrischem Wege. • 2. Die Wirkung auf die K - und Na -Durchlässigkeit der Membrane des Ranvier-Schnürringes (s. Fox T.M. et al. "Modification of ionic membrane currrents of Ranvier nodes by UV-radiation under voltage clamp conditions", Experientia, 27, 1289-1290 /1971/ und Arhom P. et al. "Local anesthetics: effects on permeability properties of nodal membrane in myelynated nerve fibres from xenopus". Acta physiol. Scand. 91, 11-21 /1974/) der Nervenfasern des Hüftnervs des Frosches unter Anwendung der Methode der Messung der Membranspannung (Voltage-clampmethode) (s. Derksen H.E. "Axon membrane voltage fluctuations", Acta Physiol., Pharmacol Neer, 13, 373-466 /1965/).
(§5) Alle erfindungsgemäßen Verbindungen sind Blocker für die K^+-Durchlässigkeit der Membrane analog dem Amyridin. Die Salze der bicyclischen Basen blockieren jedoch stärker die Na -Durchlässigkeit der Membrane, was sich mit ihren sedativen und analgetischen Eigenschaften in Verbindung bringen läßt.

[17] = tested on: Na -Durchlässigkeit der Membrane des Ranvier-Schnürringes; assay: Na+ permeability of the node of Ranvier membrane, voltage clamp; set-up: species or system Frosches; conditions: concentration giving 50 % block of ion permeability
Source text: as §4, §5

[18] = Konzentration 1.10^-5 Mol, 10 µM
[19] = Konzentration 1.10^-6 Mol, 1 µM
[20] = mouse, in vivo, ip, read-out: LD50
[21] = in vivo, toxic dose causing tremor in 50 % of the animals
[22] = Uterus der Ratte, Konzentration 1.10^-5 Mol

T1 sequence (P22303 other isoform, or with tags, fused parts or gaps): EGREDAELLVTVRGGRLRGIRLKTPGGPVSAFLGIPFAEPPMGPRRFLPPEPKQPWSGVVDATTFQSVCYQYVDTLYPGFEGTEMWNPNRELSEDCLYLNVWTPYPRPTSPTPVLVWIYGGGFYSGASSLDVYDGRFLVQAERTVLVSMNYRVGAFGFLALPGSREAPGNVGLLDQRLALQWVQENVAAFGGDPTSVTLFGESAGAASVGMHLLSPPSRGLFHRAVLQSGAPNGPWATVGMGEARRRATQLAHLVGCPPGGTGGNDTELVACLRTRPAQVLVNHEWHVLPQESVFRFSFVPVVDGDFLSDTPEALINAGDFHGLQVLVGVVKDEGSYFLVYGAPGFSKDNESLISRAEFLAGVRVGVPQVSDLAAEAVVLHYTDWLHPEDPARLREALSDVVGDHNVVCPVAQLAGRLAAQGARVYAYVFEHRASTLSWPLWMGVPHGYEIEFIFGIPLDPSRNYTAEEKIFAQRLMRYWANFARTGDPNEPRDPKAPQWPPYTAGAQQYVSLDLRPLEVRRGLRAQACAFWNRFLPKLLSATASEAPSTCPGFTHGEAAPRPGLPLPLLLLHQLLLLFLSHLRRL

SMILES | Einfluß auf das Gedächtnis: Zahl der Tiere in %, bei denen die Skopolaminwirkung aufgehoben wurde [3] [%] | Stimulierung der Nerven-Muskelübertragung, in % der Amplitude: EPP [4] [%] | Stimulierung der Nerven-Muskelübertragung, in % der Amplitude: minEPP [4] [%] | Ki [10] [µM] | Verdrängung des 3H-Clonidins in der Hirnrinde des Kaninchens (α2-Adrenorezeptoren) [11, 18] | Verdrängung des 3H-Clonidins in der Hirnrinde des Kaninchens (α2-Adrenorezeptoren) [11, 19] | α2-adrenoblockierende Wirkung [11] | inhibition at 10 µM [12] [%] | inhibition at 1 µM [12] [%] | Verdrängung des 3H-Propyl-2-aminobenzylats im Gehirn des Kaninchens (M-cholinrezeptoren) [13, 18] | Verdrängung des 3H-Propyl-2-aminobenzylats im Gehirn des Kaninchens (M-cholinrezeptoren) [13, 19] | LD50 [1, 20] [mg/kg] | TD50 [2, 21] [mg/kg] | Serotonin 1.10^-6 (Mol): Dauer, Min. [14, 22] [Min.] | other results
Cc1nc2c(c(N)c1C)CCC2 [Verbindung 1, 4-Amino-2,3-dimethyl-6,7-dihydro-5H-1-pyrindinhydrochlorid] | 70 | 50 | 90 | 1.07 | 26 | 0 | α2-adrenoblockierende Wirkung zeigt | 0 | 0 | 28 | 0 | – | – | – | LD50 [1]: 15 mg/kg; Verhältnis TD50 zu ED50 ([2]; ED50 = dose blocking the effect of Skopolamin in 50 % of the animals (passive avoidance, mice)): 15; TD50 (Tremor) ([2]; toxic dose causing tremor in 50 % of the animals): 6 mg/kg; Antiarrhythmische Wirkung: Verlängerung d. Refraktärzeit (R), in % [5]: 120%; Antiarrhythmische Wirkung: Verlängerung d. Lebensdauer von Ratten an Hand des CaCl2-Arrhythmie-Modells, in % [6]: 150%; Analgetische Wirkung: Abnahme d. Zahl der "Krämpfe" bei Mäusen, in % [7]: 60%; Änderung der Orientierungsaktivität, in % [8]: -25%; Änderung der Dauer der Seitenlage, in %: Hexenal 60 mg/kg [9]: +28%
Nc1c2c(nc3c1CCC3)CCCCC2 [Verbindung 38] | 70 | 28 | 52 | 0.48 | – | – | – | – | – | – | – | 49 | 17 | 25±0.8 | selectivity ratio ([2]; in vivo, ED50 = dose blocking the effect of Skopolamin in 50 % of the animals (passive avoidance, mice), read-out: Verhältnis TD50 zu ED50): 7.6; activity at 10 µM ([14]; Uterus der Ratte (as head prints), Konzentration 1.10^-5 Mol, ditto mark -"- repeats unverändert, read-out: Acetylcholin 1.10^-6 (Mol): Amplidude, % bezogen auf d. Kontrolle): 125%; activity at 10 µM ([14]; Uterus der Ratte, Konzentration 1.10^-5 Mol, read-out: Serotonin 1.10^-6 (Mol): Amplitude, % bezogen auf die Kontrolle): 180%; Acetylcholin 1.10^-6 (Mol): Dauer, Min. ([14]; Uterus der Ratte (as head prints), Konzentration 1.10^-5 Mol): 20±0.6 Min.; activity at 10 µM ([15]; Rattus norvegicus, Samenleiter der Ratte, Konzentration 1.10^-5 Mol, read-out: Adrenalin 1.10^-6: Amplitude, % bezogen auf d.Kontrolle): 145%; IC50 ([16]; node of Ranvier, frog sciatic nerve fibres, voltage clamp, read-out: Blockierung der K^+-Durchlässigkeit der Membrane Ic50 (Mol)): 580 µM; IC50 ([17]; node of Ranvier, frog sciatic nerve fibres, voltage clamp, read-out: Blockierung der Na^+-Durchlässigkeit der Membrane Ic50 (Mol)): 4500 µM
Nc1c2c(nc3ccccc13)CCCC2 [Verbindung 41, 2,3,4,5-Tetrahydro-9-amino-acridin, reference compound] | – | 22 | 40 | – | 27 | 0 | in demselben Maße | 50 | 10 | 0 | 0 | 30 | 10 | 5±0.5 | activity at 100 µM ([14]; read-out: Acetylcholin 1.10^-6 (Mol): Amplidude, % bezogen auf d. Kontrolle, Uterus der Ratte (as head prints), ditto mark -"- repeats unverändert): 26%; activity at 10 µM ([14]; read-out: Acetylcholin 1.10^-6 (Mol): Amplidude, % bezogen auf d. Kontrolle, Uterus der Ratte (as head prints), Konzentration 1.10^-5 Mol, ditto mark -"- repeats unverändert): 100%; activity at 100 µM ([14]; read-out: Serotonin 1.10^-6 (Mol): Amplitude, % bezogen auf die Kontrolle, Uterus der Ratte): 0%; activity at 10 µM ([14]; read-out: Serotonin 1.10^-6 (Mol): Amplitude, % bezogen auf die Kontrolle, Uterus der Ratte, Konzentration 1.10^-5 Mol): 164%; activity at 100 µM ([15]; Rattus norvegicus, read-out: Adrenalin 1.10^-6: Amplitude, % bezogen auf d.Kontrolle, Samenleiter der Ratte, Konzentration 1.10^-4 Mol): 35%; activity at 10 µM ([15]; Rattus norvegicus, read-out: Adrenalin 1.10^-6: Amplitude, % bezogen auf d.Kontrolle, Samenleiter der Ratte, Konzentration 1.10^-5 Mol): 120%; Adrenalin 1.10^-6: Dauer, Min. ([15]; Samenleiter der Ratte, Konzentration 1.10^-4 Mol): 2±0.2 Min.; Adrenalin 1.10^-6: Dauer, Min. ([15]; Samenleiter der Ratte, Konzentration 1.10^-5 Mol): 2±0.06 Min.; IC50 ([16]; read-out: Blockierung der K^+-Durchlässigkeit der Membrane Ic50 (Mol), node of Ranvier, frog sciatic nerve fibres, voltage clamp): 800 µM; IC50 ([17]; read-out: Blockierung der Na^+-Durchlässigkeit der Membrane Ic50 (Mol), node of Ranvier, frog sciatic nerve fibres, voltage clamp): 15 µM
